From patent US9359371B2, “Bicyclic substituted pyrimidine compounds” (Xuanzhu Pharma Co., Ltd., priority 2012, dated 2016)
Read-outs that look alike come from different tables or passages of the source.

Legend:
[1] = tested on: length of New Zealand rabbit's penis; test: Pharmacological activity in vivo (oral administration, 100 mg/kg), rabbit penis length; set-up: species or system New Zealand rabbits; conditions: Table 7; oral 100 mg/kg; 0-240 min
Excerpt: Experiment 6: Assay of Pharmacological Activity In Vivo (Oral Administration)
After accommodating with the environment, the New Zealand rabbits were grabbed everyday. When the rabbits were accustomed to the repeated grabbing, drug administration was began. The animals were randomly divided into groups by weight, with 6 rabbits of each group. The test compounds were separately dissolved in menstruum. […] The corresponding test compounds were orally administrated to animals of each group. The dosage was 100 mg/kg, and the administration volume was 1 mL/kg. The length of the rabbit's penis was measured with a digital caliper before and 5, 10, 15, 30, 50, 60, 90, 120, 180 and 240 min after the administration. Touch of the rabbit's penis by the caliper was avoided during the measurements.

[2] = Pharmacokinetics (PK) in SD rats; assay type: in vivo; conditions: rat; for bioavailability: read-out: F % (absolute bioavailability)
PDE-11 = PDE-11 (Homo sapiens (Human), UniProt Q9HCR9); conditions: cited from earlier work
PDE-11, sequence (Q9HCR9 whole entry): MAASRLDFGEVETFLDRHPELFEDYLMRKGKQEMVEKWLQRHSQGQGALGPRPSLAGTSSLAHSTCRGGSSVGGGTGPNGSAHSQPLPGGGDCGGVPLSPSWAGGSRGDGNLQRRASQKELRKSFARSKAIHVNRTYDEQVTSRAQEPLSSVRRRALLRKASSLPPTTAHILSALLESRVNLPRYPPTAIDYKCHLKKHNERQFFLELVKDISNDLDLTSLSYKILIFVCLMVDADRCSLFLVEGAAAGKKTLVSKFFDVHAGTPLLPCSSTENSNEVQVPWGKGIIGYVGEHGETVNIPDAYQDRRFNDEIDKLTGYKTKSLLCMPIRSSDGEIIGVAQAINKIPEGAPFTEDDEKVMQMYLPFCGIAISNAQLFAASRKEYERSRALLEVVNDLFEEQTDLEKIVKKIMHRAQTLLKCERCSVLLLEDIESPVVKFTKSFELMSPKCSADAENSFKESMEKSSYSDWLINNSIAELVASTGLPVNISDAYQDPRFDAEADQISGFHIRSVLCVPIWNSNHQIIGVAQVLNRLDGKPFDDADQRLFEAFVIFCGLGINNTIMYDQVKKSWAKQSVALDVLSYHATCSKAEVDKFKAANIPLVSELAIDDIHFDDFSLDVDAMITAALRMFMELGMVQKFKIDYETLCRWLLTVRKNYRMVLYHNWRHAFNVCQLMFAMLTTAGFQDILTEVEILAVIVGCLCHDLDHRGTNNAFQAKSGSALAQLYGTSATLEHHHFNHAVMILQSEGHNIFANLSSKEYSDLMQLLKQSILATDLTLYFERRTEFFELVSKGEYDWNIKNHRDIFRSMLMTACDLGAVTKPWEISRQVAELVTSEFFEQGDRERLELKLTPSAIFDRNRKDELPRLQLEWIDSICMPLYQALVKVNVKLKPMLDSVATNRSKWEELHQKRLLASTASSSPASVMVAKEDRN

hERG channel = hERG channel (Homo sapiens (Human), UniProt Q12809); test: hERG potassium channel whole-cell patch clamp on CHO-K1 cell line
hERG channel, sequence (Q12809 whole entry): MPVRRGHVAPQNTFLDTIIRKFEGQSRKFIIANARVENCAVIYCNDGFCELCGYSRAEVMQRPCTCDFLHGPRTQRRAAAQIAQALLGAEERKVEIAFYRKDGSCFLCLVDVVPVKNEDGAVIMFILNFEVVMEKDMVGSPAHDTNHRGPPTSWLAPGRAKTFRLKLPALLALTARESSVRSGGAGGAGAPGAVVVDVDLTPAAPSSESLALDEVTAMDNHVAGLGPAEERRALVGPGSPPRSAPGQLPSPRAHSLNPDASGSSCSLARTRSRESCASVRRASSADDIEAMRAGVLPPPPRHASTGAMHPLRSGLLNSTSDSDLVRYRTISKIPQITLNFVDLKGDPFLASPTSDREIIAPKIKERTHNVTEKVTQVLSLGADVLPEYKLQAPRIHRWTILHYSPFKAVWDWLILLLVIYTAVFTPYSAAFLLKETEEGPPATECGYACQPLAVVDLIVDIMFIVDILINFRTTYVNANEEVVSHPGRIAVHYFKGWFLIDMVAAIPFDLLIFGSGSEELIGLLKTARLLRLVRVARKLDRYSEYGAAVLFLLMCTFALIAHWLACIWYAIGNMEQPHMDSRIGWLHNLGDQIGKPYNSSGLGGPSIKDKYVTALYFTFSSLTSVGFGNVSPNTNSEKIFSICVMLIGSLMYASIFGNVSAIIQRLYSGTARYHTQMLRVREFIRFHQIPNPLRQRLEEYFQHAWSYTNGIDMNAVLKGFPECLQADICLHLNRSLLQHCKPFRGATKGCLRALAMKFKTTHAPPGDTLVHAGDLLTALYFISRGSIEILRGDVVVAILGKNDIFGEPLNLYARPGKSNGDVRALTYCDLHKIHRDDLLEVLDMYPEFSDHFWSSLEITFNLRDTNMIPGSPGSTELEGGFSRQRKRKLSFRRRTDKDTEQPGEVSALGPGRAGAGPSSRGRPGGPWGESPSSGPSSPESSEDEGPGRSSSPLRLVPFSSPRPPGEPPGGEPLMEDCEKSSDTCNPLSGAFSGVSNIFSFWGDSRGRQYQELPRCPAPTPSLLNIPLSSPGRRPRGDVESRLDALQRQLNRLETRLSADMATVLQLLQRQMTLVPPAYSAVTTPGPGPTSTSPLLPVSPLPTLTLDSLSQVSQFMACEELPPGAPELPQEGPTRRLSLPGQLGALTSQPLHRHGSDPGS
Excerpt: Experiment 8: Detection of Inhibitory Effect of the Compounds of the Present Invention on hERG Potassium Channel by the Patch Clamp Method
Rapidly activated human delayed rectifying outward potassium current (IKr) is mainly mediated by hERG ion channel and is involved in repolarization of human cardiac muscle cell. Clinically, blocking of the current by a drug is the main cause of QT interval prolongation syndrome, acute arrhythmia and even sudden death. The main purpose of the experiment is to test the blocking effect of the compounds of the present invention on hERG channel, and to determine the half maximal inhibitory concentration (IC50) of the compounds.
The experiment mainly included: (1) recording hERG current by patch clamp technique on CHO-K1 cell line which stably expressed hERG channel; (2) calculating the Inhibition rate of each concentration according to hERG tail current; (3) testing each compound at 5 concentrations to calculate IC50; (4) testing 2 cells at each concentration; (5) a positive control.
The structures and synthesis of Compound 88 (WO-88) and Compound 93 (WO-93) as disclosed in WO200119802A were described in Example 55 and Example 56.
Drug for positive control: Amitriptyline hydrochloride (Sigma-Aldrich, an international standard blocker for hERG channel)
Pippette Solution (in mM): KCl 120, KOH 31.25, CaCl2 5.374, MgCl2 1.75, Ethylene glycol-bis(β-aminoethyl ether)-N,N,N′,N′-tetraacetic acid (EGTA) 10, HEPES 10, Na2-ATP 4, adjusted to a pH of 7.2 with 1N potassium hydroxide; adjusted to an osmotic pressure of 280-290 mOsm; preserved at −20° C. after filtration.
Preparation of compounds: Some of the compounds of the present invention and Amitriptyline hydrochloride as the positive control drug were separately dissolved in 100% DMSO (Merck, 61850125001730), then prepared into stock solutions of 30 mM. Before the experiment, the above stock solutions were diluted with DMSO to a concentration of 1000-fold of the experimental concentration. Then the diluted solutions were further diluted with extracellular solution by 1:1000 to the required experimental concentration. The final concentration of DMSO in the extracellular solution was kept as 0.1%.
Stable cell line CHO-hERG was purchased from AVIVA Company. The hERG current on the cell line was recorded. For the purpose of quality control, the smallest seal resistance was no less than 500 MΩ, and the hERG current was no less than 0.4 nA.
The hERG current was recorded by a whole-cell patch clamp technique. Cell suspension was added into a 35-mm culture dish. The culture dish was placed on the objective table of an inverted microscope. Upon cell attachment, perfusion was conducted with the extracellular solution at a flow rate of 1-2 mL/min.
Glass microelectrode with the pipette tip resistance of 2-5 MΩ was controlled by a microelectrode puller via a two-step process. After the whole-cell record was set up, the clamp potential was kept at −80 mV. The cell was depolarized to +60 mV by applying a voltage stimulus, and then repolarized to −50 mV to obtain the hERG tail current. Recordation was conducted after the current was stable. The extracellular perfusion was started from the lowest concentration, with 5-10 min for each concentration until the current was stable, and then conducted with the next concentration.
Stimulus payment and signal collection were performed by A/D-D/A conversion using Digidata 1440 (Molecular Devices) and pCLAMP software (Version 10.2, Molecular Devices). Signal amplification was performed on a patch clamp amplifier (Multiclamp 700B, Molecular Devices), with a filter of 1 KHz. Further data analysis and curve fitting were conducted by Clampfit (version 10.2, Molecular Devices) and Prism. The data were presented as mean value±standard deviation.
In the process of data analysis, the peak value and the baseline of the tail current were corrected when determining the blocking effect on hERG.

[3] = in human; cited from earlier work
[4] = tested on: length of New Zealand rabbit's penis; test: Pharmacological activity in vivo (intravenous injection), rabbit penis length; set-up: species or system New Zealand rabbits; conditions: iv 10 mg/kg, sodium nitroprussiate 0.2 mg/kg iv 5 min after, 0-120 min
Experimental: Experiment 5: Assay of Pharmacological Activity In Vivo (Intravenous Injection)
After accommodating with the environment, the New Zealand rabbits were grabbed everyday. When the rabbits were accustomed to the repeated grabbing, drug administration was began. The animals were randomly divided into groups by weight. The test compounds were separately dissolved in menstruum. […] The corresponding test compounds were injected into the auricular veins of animals of each group. The dosage of the compounds in Table 5 was 10 mg/kg, and the administration volume was 1 mL/kg. The dosage of the compounds in Table 6 was 10 mg/kg, and the administration volume was 2 mL/kg. 0.2 mg/kg sodium nitroprussiate was intravenously injected into the rabbits 5 min after the administration of the test compounds, with the administration volume of 0.5 mL/kg.
The length of the rabbit's penis was measured with a digital caliper before and 10, 15, 30, 50, 60, 90 and 120 min after the administration. Touch of the rabbit's penis by the caliper was avoided during the measurements.

PDE-6 = conditions: cited from earlier work
[5] = molecular target: PDE-5 enzyme (human blood platelets) (Homo sapiens (Human), UniProt O76074); test: PDE-5 enzyme assay, [3H]cGMP; assay type: biochemical
bovine retinal PDE-6 [6] = molecular target: bovine retinal PDE-6 (Bos taurus (Bovine), UniProt P11541+P23439); test: PDE-6 enzyme assay, [3H]cGMP; assay type: biochemical
bovine retinal PDE-6 (Bos taurus (Bovine), UniProt P11541+P23439), sequence (P11541 whole entry, looked up): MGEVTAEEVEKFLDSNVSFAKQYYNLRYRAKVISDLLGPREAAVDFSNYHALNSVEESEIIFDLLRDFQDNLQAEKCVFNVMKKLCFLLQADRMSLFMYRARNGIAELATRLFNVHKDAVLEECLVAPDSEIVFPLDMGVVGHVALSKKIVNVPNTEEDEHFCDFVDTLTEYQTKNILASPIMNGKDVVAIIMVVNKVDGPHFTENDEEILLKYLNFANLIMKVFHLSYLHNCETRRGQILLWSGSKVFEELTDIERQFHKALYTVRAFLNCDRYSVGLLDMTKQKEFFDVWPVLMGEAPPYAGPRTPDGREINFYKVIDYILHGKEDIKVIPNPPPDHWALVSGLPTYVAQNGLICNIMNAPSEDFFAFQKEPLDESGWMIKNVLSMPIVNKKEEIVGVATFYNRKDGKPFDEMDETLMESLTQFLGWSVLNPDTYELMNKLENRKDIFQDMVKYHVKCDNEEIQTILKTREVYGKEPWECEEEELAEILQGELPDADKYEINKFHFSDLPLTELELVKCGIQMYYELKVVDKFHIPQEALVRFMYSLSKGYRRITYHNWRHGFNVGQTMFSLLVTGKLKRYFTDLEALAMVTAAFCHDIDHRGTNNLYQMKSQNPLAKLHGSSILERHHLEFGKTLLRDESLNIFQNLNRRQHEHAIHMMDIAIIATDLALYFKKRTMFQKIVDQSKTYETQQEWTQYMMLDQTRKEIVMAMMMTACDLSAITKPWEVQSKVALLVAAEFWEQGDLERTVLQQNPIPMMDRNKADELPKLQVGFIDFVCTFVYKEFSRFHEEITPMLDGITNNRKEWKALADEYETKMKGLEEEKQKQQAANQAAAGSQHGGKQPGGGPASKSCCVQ
bovine retinal PDE-6 (Bos taurus (Bovine), UniProt P11541+P23439), sequence (P23439 whole entry, looked up): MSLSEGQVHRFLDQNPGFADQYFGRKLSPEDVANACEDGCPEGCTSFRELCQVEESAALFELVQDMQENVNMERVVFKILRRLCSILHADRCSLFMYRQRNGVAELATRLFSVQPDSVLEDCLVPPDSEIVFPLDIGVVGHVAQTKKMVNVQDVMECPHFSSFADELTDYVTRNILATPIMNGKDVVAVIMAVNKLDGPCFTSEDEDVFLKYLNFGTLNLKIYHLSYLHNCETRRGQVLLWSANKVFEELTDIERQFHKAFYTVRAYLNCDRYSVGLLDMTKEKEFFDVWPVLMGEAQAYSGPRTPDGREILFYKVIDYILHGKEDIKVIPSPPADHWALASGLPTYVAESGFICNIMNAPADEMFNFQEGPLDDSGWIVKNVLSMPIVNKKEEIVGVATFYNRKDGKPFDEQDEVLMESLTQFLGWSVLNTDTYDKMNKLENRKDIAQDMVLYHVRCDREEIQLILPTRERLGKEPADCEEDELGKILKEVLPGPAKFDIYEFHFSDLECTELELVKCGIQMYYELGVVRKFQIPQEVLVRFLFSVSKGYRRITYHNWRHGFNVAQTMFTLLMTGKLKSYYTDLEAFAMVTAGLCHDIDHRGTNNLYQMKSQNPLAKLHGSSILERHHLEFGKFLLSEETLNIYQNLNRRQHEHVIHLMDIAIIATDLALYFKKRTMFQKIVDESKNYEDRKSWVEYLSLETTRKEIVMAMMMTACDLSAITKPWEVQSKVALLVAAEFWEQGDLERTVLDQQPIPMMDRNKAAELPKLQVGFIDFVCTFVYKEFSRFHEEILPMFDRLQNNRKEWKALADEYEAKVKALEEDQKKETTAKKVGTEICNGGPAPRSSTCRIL
Experimental: (§1) Experiment 3: Measurement of Enzyme Activity on PDE-6 Enzyme In Vitro
(§2) Source of enzyme: PDE-6, bovine retinal PDE-6
(§3) Method: The test compound or solvent was incubated at 25° C. for 15 min with enzyme solution (0.2 μg/mL) in Tris-HCl buffer of pH 7.5. 100 μM cGMP and 0.03 μM [^3H] cGMP were then added to activate the reaction. The mixture was incubated for 20 min. The reaction was stopped at 100° C. By addition of snake venom nucleotidase, the product [^3H] GMP was converted into [^3H] Guanosine, which was separated with AG1-X2 resin. The amount of [^3H] Guanosine was measured.

bovine retinal PDE-6 [7] = test: PDE-6 enzyme assay, [3H]cGMP; assay type: biochemical; conditions: selectivity >70 called high
Experimental: as §1, §2, §3

PDE-5A enzyme = PDE-5A enzyme (Homo sapiens (Human), UniProt O76074); test: Caliper Mobility-Shift PDE-5A Assay; assay type: biochemical; conditions: Table 1; Avanafil value is the control
[8] = tested on: length of New Zealand rabbit's penis; test: Pharmacological activity in vivo (oral administration, 70 mg/kg, with SNP), rabbit penis length; set-up: species or system New Zealand rabbits; conditions: Table 8; oral 70 mg/kg; SNP 0.2 mg/kg iv 60 min after; 0-180 min
Experimental: Experiment 7: Assay of Pharmacological Activity In Vivo (Oral Administration)
After accommodating with the environment, the New Zealand rabbits were grabbed everyday. When the rabbits were accustomed to the repeated grabbing, drug administration was began. The animals were randomly divided into groups by weight, with 6 rabbits of each group. […] The corresponding test compounds were orally administrated to animals of each group. The dosage was 70 mg/kg, and the administration volume was 1 mL/kg. SNP (0.2 mg/kg, 0.5 mL/kg) was injected into the auricular veins of rabbits 60 min after the administration of the test compounds. The length of the rabbit's penis was measured with a digital caliper before and 10, 15, 30, 50, 60, 65, 70, 75, 90, 110, 120 and 180 min after the administration. Touch of the rabbit's penis by the caliper was avoided during the measurements.

[9] = SD, plasma, po, intragastric administration, 2 mg/kg
[10] = Table 2, human blood platelet enzyme, read-out: IC50 on PDE-5
[11] = Table 4-1, read-out: PDE-6 (IC50 nM)

With `COc1ccc(CN=c2[nH]c(N3CCC[C@H]3CO)ncc2C(=O)NCc2ncccn2)cc1Cl` [Avanafil, reference compound] the “AUC of penis length” value [1] was 199.4 mm × min, the AUC(0-inf) [2, 9] was 50 ng·h/mL and the Cmax [2, 9] was 18 ng/mL. It also gave a Tmax [2, 9] of 0.33 h, a bioavailability [2, 9] of 4.5% and an AUC(0-inf) ([2]; SD, plasma, intravenous injection, 2 mg/kg) of 382 ng·h/mL. The Cl_obs ([2]; intravenous injection, 2 mg/kg) was 88.5 mL/min/kg, the Vss_obs ([2]; intravenous injection, 2 mg/kg) was 3.56 L/kg and the “inhibitory effect on PDE-11” value (PDE-11) was “no inhibitory effect on PDE-11”. For the same compound, the IC50 (hERG channel) was 14600 nM, the half-life [3] was “about 1.2 h” and the “AUC of penis length” value ([4]; Table 5, 1 mL/kg) was 317.9 mm × min. For the same compound, the “AUC of penis length” value ([4]; Table 6, 2 mL/kg) was 421.2 mm × min and the “ratio PDE-6/5” value (PDE-6) was “about 120”.

For `COc1ccc(CNc2nc(N3CC4CC4C3)ncc2C(=O)NCc2ccccc2)cc1Cl` (stereo not shown) [Compound 3, N-benzyl-2-(3-azabicyclo[3.1.0]hexan-3-yl)-4-((3-chloro-4-methoxybenzyl)amino)pyrimidine-5-formamide], the IC50 [5, 10] was 0.91 nM, the IC50 (hERG channel) was over 27800 nM and the “inhibitory effect on hERG channel (in words)” value (hERG channel; human, CHO-K1 cells stably expressing hERG channel, pH 7.4) was “none of Compound 3, 11 and 50 of the present invention had a significant inhibitory effect”. For the same compound, the IC50 (bovine retinal PDE-6 [6]; [11]) was 8.89 nM, the “selectivity on PDE-5 enzyme versus PDE-6 (in words)” value (bovine retinal PDE-6 [7]) was “higher selectivity on PDE-5 enzyme than to PDE-6” and the IC50 (PDE-5A enzyme) was 12.9 nM. For the same compound, the “AUC of penis length” value [8] was 46.26 mm × min.

With `COc1ccc(CNc2nc(N3CCC4(CC4)C3)ncc2C(=O)N[C@H]2CC[C@H](O)CC2)cc1Cl` [Compound 38, 4-((3-chloro-4-methoxybenzyl)amino)-N-(trans-4-hydroxycyclohexyl)-2-(5-azaspiro[2.4]heptan-5-yl)pyrimidine-5-formamide] the “AUC of penis length” value [1] was 802.7 mm × min, the IC50 [5, 10] was 0.8 nM and the IC50 ([5]; Table 4-1, read-out: PDE-5 (IC50 nM)) was 0.8 nM. For the same compound, the half-life [2, 9] was 2.11 h, the bioavailability [2, 9] was 35% and the half-life ([2]; SD, plasma, intravenous injection, 1 mg/kg) was 3.5 h. The Cl_obs ([2]; intravenous injection, 1 mg/kg) was 16.8 mL/min/kg, the Vss_obs ([2]; intravenous injection, 1 mg/kg) was 4.47 L/kg and the IC50 (bovine retinal PDE-6 [6]; Table 3, read-out: IC50 on PDE-6) was 58 nM. For the same compound, the IC50 (bovine retinal PDE-6 [6]; [11]) was 58 nM, the “AUC of penis length” value [8] was 654.0 mm × min and the “AUC of penis length” value ([4]; Table 6, 2 mL/kg) was 772.8 mm × min.

In the case of `CN1CC(=O)N2[C@H](c3ccc4c(c3)OCO4)c3[nH]c4ccccc4c3C[C@@H]2C1=O` [Tadalafil], the half-life [3] is listed as “about 16 h”.
